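Five compound concentrations were applied to cells in 96-well plates for 48 hours; endpoints were derived by simple linear interpolation of the resulting dose-response curve. TGI is the concentration that stops growth completely.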
What was measured:
Assay in all cases: inhibition of tumour cell growth, NCI panel, 48 h
BT-549 breast = test system: BT-549 breast
SNB-19 CNS = test system: SNB-19 CNS
OVCAR-8 ovarian = test system: OVCAR-8 ovarian
M14 melanoma = test system: M14 melanoma
OVCAR-5 ovarian = test system: OVCAR-5 ovarian
HCT-116 colon = test system: HCT-116 colon
HL-60(TB) leukemia = test system: HL-60(TB) leukemia
EKVX NSCLC = test system: EKVX NSCLC
A549 NSCLC = test system: A549 NSCLC
T-47D breast = test system: T-47D breast
SK-OV-3 ovarian = test system: SK-OV-3 ovarian
KM12 colon = test system: KM12 colon
SR leukemia = test system: SR leukemia
SK-MEL-28 melanoma = test system: SK-MEL-28 melanoma
SNB-75 CNS = test system: SNB-75 CNS
COLO 205 colon = test system: COLO 205 colon
LOX IMVI melanoma = test system: LOX IMVI melanoma
NCI-H460 lung = test system: NCI-H460 lung
HOP-92 NSCLC = test system: HOP-92 NSCLC
U251 CNS = test system: U251 CNS
UO-31 renal = test system: UO-31 renal
MDA-MB-435 = test system: MDA-MB-435
SF-539 CNS = test system: SF-539 CNS
NCI-H522 lung = test system: NCI-H522 lung
MDA-MB-231 breast = test system: MDA-MB-231 breast
DU-145 prostate = test system: DU-145 prostate
TK-10 renal = test system: TK-10 renal
HCT-15 colon = test system: HCT-15 colon
MCF7 breast = test system: MCF7 breast
IGROV1 ovarian = test system: IGROV1 ovarian
SW-620 colon = test system: SW-620 colon
K-562 leukemia = test system: K-562 leukemia
SF-295 CNS = test system: SF-295 CNS
HOP-62 NSCLC = test system: HOP-62 NSCLC
NCI-H23 lung = test system: NCI-H23 lung
UACC-62 melanoma = test system: UACC-62 melanoma
HT29 colon = test system: HT29 colon
PC-3 prostate = test system: PC-3 prostate
MDA-N = test system: MDA-N
CCRF-CEM leukemia = test system: CCRF-CEM leukemia
SK-MEL-5 melanoma = test system: SK-MEL-5 melanoma
786-0 renal = test system: 786-0 renal
OVCAR-3 ovarian = test system: OVCAR-3 ovarian
NCI/ADR-RES ovarian = test system: NCI/ADR-RES ovarian
MOLT-4 leukemia = test system: MOLT-4 leukemia
UACC-257 melanoma = test system: UACC-257 melanoma
SN12C renal = test system: SN12C renal
OVCAR-4 ovarian = test system: OVCAR-4 ovarian
SF-268 CNS = test system: SF-268 CNS
HCC-2998 colon = test system: HCC-2998 colon
A498 renal = test system: A498 renal
RXF 393 renal = test system: RXF 393 renal
SK-MEL-2 melanoma = test system: SK-MEL-2 melanoma
HS 578T breast = test system: HS 578T breast
NCI-H226 lung = test system: NCI-H226 lung
ACHN renal = test system: ACHN renal
MALME-3M melanoma = test system: MALME-3M melanoma
RPMI-8226 leukemia = test system: RPMI-8226 leukemia
CAKI-1 renal = test system: CAKI-1 renal

C1CSCCSS[C@@H]2CCCCC2SC1 (some centres undefined)
TGI (BT-549 breast): > 100 µM
TGI (SNB-19 CNS): > 100 µM
TGI (OVCAR-8 ovarian): > 100 µM
TGI (M14 melanoma): > 100 µM
TGI (OVCAR-5 ovarian): > 100 µM
TGI (HCT-116 colon): > 100 µM
TGI (HL-60(TB) leukemia): > 100 µM
TGI (EKVX NSCLC): > 100 µM
TGI (A549 NSCLC): > 100 µM
TGI (T-47D breast): > 100 µM
TGI (SK-OV-3 ovarian): > 100 µM
TGI (KM12 colon): > 100 µM
TGI (SR leukemia): > 100 µM
TGI (SK-MEL-28 melanoma): > 100 µM
TGI (SNB-75 CNS): > 100 µM
TGI (COLO 205 colon): > 100 µM
TGI (LOX IMVI melanoma): > 100 µM
TGI (NCI-H460 lung): > 100 µM
TGI (HOP-92 NSCLC): 97.8 µM
TGI (U251 CNS): > 100 µM
TGI (UO-31 renal): > 100 µM
TGI (MDA-MB-435): > 100 µM
TGI (SF-539 CNS): > 100 µM
TGI (NCI-H522 lung): > 100 µM
TGI (MDA-MB-231 breast): > 100 µM
TGI (DU-145 prostate): > 100 µM
TGI (TK-10 renal): > 100 µM
TGI (HCT-15 colon): > 100 µM
TGI (MCF7 breast): > 100 µM
TGI (IGROV1 ovarian): > 100 µM
TGI (SW-620 colon): > 100 µM
TGI (K-562 leukemia): > 100 µM
TGI (SF-295 CNS): > 100 µM
TGI (HOP-62 NSCLC): > 100 µM
TGI (NCI-H23 lung): > 100 µM
TGI (UACC-62 melanoma): > 100 µM
TGI (HT29 colon): > 100 µM
TGI (PC-3 prostate): > 100 µM
TGI (MDA-N): > 100 µM
TGI (CCRF-CEM leukemia): > 100 µM
TGI (SK-MEL-5 melanoma): > 100 µM
TGI (786-0 renal): > 100 µM
TGI (OVCAR-3 ovarian): > 100 µM
TGI (NCI/ADR-RES ovarian): > 100 µM
TGI (MOLT-4 leukemia): > 100 µM
TGI (UACC-257 melanoma): > 100 µM
TGI (SN12C renal): > 100 µM
TGI (OVCAR-4 ovarian): > 100 µM
TGI (SF-268 CNS): > 100 µM
TGI (HCC-2998 colon): > 100 µM

COc1cccc(N2CCc3c(C)c(C#N)c4nc5ccccc5n4c32)c1
TGI (BT-549 breast): > 100 µM
TGI (SNB-19 CNS): > 100 µM
TGI (OVCAR-8 ovarian): > 100 µM
TGI (A498 renal): > 100 µM
TGI (M14 melanoma): > 100 µM
TGI (OVCAR-5 ovarian): > 100 µM
TGI (RXF 393 renal): > 100 µM
TGI (HCT-116 colon): > 100 µM
TGI (HL-60(TB) leukemia): > 100 µM
TGI (A549 NSCLC): > 100 µM
TGI (SK-OV-3 ovarian): > 100 µM
TGI (SK-MEL-28 melanoma): > 100 µM
TGI (SNB-75 CNS): > 100 µM
TGI (COLO 205 colon): > 100 µM
TGI (SK-MEL-2 melanoma): > 100 µM
TGI (LOX IMVI melanoma): > 100 µM
TGI (NCI-H460 lung): > 100 µM
TGI (HOP-92 NSCLC): > 100 µM
TGI (U251 CNS): > 100 µM
TGI (UO-31 renal): > 100 µM
TGI (MDA-MB-435): > 100 µM
TGI (SF-539 CNS): > 100 µM
TGI (NCI-H522 lung): > 100 µM
TGI (MDA-MB-231 breast): > 100 µM
TGI (DU-145 prostate): > 100 µM
TGI (TK-10 renal): > 100 µM
TGI (HS 578T breast): 60.7 µM
TGI (HCT-15 colon): > 100 µM
TGI (MCF7 breast): > 100 µM
TGI (IGROV1 ovarian): > 100 µM
TGI (SW-620 colon): > 100 µM
TGI (K-562 leukemia): > 100 µM
TGI (SF-295 CNS): > 100 µM
TGI (HOP-62 NSCLC): > 100 µM
TGI (NCI-H23 lung): > 100 µM
TGI (UACC-62 melanoma): > 100 µM
TGI (NCI-H226 lung): > 100 µM
TGI (HT29 colon): > 100 µM
TGI (PC-3 prostate): > 100 µM
TGI (MDA-N): > 100 µM
TGI (CCRF-CEM leukemia): > 100 µM
TGI (SK-MEL-5 melanoma): > 100 µM
TGI (786-0 renal): > 100 µM
TGI (OVCAR-3 ovarian): > 100 µM
TGI (ACHN renal): > 100 µM
TGI (NCI/ADR-RES ovarian): > 100 µM
TGI (MALME-3M melanoma): > 100 µM
TGI (UACC-257 melanoma): > 100 µM
TGI (SN12C renal): > 100 µM
TGI (OVCAR-4 ovarian): > 100 µM
TGI (SF-268 CNS): > 100 µM
TGI (HCC-2998 colon): > 100 µM

Fc1ccc(C(OCCN2CC3CC2CN3CCCc2ccccc2)c2ccc(F)cc2)cc1 (centres undefined)
TGI (BT-549 breast): 24 µM
TGI (SNB-19 CNS): 27.3 µM
TGI (OVCAR-8 ovarian): 10.1 µM
TGI (A498 renal): 18.3 µM
TGI (M14 melanoma): 3.79 µM
TGI (OVCAR-5 ovarian): 23.5 µM
TGI (HCT-116 colon): 18.5 µM
TGI (HL-60(TB) leukemia): 12.3 µM
TGI (EKVX NSCLC): 18.5 µM
TGI (A549 NSCLC): 26.6 µM
TGI (T-47D breast): 7.21 µM
TGI (SK-OV-3 ovarian): 31.7 µM
TGI (KM12 colon): 21.2 µM
TGI (RPMI-8226 leukemia): 6.54 µM
TGI (SK-MEL-28 melanoma): 9.09 µM
TGI (SNB-75 CNS): 7.2 µM
TGI (COLO 205 colon): 3.11 µM
TGI (SK-MEL-2 melanoma): 21.8 µM
TGI (LOX IMVI melanoma): 19.2 µM
TGI (NCI-H460 lung): 17.3 µM
TGI (HOP-92 NSCLC): 26.7 µM
TGI (U251 CNS): 19.5 µM
TGI (UO-31 renal): 24.7 µM
TGI (MDA-MB-435): 20.5 µM
TGI (SF-539 CNS): 5.12 µM
TGI (NCI-H522 lung): 21.2 µM
TGI (MDA-MB-231 breast): 15.7 µM
TGI (DU-145 prostate): 24.3 µM
TGI (TK-10 renal): 23.7 µM
TGI (HS 578T breast): 25.8 µM
TGI (HCT-15 colon): 16.8 µM
TGI (CAKI-1 renal): 24.6 µM
TGI (MCF7 breast): 18.8 µM
TGI (IGROV1 ovarian): 22.7 µM
TGI (SW-620 colon): 24.1 µM
TGI (SF-295 CNS): 20.9 µM
TGI (HOP-62 NSCLC): 29.1 µM
TGI (NCI-H23 lung): 23.8 µM
TGI (UACC-62 melanoma): 23.1 µM
TGI (NCI-H226 lung): 23.9 µM
TGI (HT29 colon): 15.5 µM
TGI (PC-3 prostate): 17.7 µM
TGI (MDA-N): 19 µM
TGI (CCRF-CEM leukemia): 21.7 µM
TGI (SK-MEL-5 melanoma): 3.39 µM
TGI (786-0 renal): 18 µM
TGI (OVCAR-3 ovarian): 25.5 µM
TGI (ACHN renal): 23.7 µM
TGI (NCI/ADR-RES ovarian): 19.8 µM
TGI (MOLT-4 leukemia): 12.5 µM
TGI (MALME-3M melanoma): 8.27 µM
TGI (UACC-257 melanoma): 12.7 µM
TGI (SN12C renal): 22.1 µM
TGI (OVCAR-4 ovarian): 25.8 µM
TGI (SF-268 CNS): 22.4 µM
TGI (HCC-2998 colon): 5.7 µM

Cc1nnc2nc(-c3ccc(Cl)cc3Cl)cc(-c3ccc(Cl)cc3)n12
TGI (BT-549 breast): > 100 µM
TGI (SNB-19 CNS): > 100 µM
TGI (OVCAR-8 ovarian): > 100 µM
TGI (M14 melanoma): > 100 µM
TGI (OVCAR-5 ovarian): > 100 µM
TGI (HCT-116 colon): > 100 µM
TGI (HL-60(TB) leukemia): > 100 µM
TGI (A549 NSCLC): > 100 µM
TGI (T-47D breast): > 100 µM
TGI (SK-OV-3 ovarian): > 100 µM
TGI (KM12 colon): > 100 µM
TGI (RPMI-8226 leukemia): > 100 µM
TGI (SR leukemia): > 100 µM
TGI (SK-MEL-28 melanoma): 40.8 µM
TGI (COLO 205 colon): 49.6 µM
TGI (LOX IMVI melanoma): > 100 µM
TGI (NCI-H460 lung): > 100 µM
TGI (HOP-92 NSCLC): 37.7 µM
TGI (U251 CNS): > 100 µM
TGI (UO-31 renal): > 100 µM
TGI (MDA-MB-435): > 100 µM
TGI (SF-539 CNS): > 100 µM
TGI (MDA-MB-231 breast): > 100 µM
TGI (DU-145 prostate): > 100 µM
TGI (TK-10 renal): > 100 µM
TGI (HS 578T breast): > 100 µM
TGI (HCT-15 colon): > 100 µM
TGI (CAKI-1 renal): > 100 µM
TGI (MCF7 breast): > 100 µM
TGI (SW-620 colon): > 100 µM
TGI (K-562 leukemia): > 100 µM
TGI (SF-295 CNS): > 100 µM
TGI (HOP-62 NSCLC): > 100 µM
TGI (NCI-H23 lung): > 100 µM
TGI (UACC-62 melanoma): > 100 µM
TGI (NCI-H226 lung): > 100 µM
TGI (HT29 colon): 42.3 µM
TGI (PC-3 prostate): > 100 µM
TGI (MDA-N): > 100 µM
TGI (CCRF-CEM leukemia): > 100 µM
TGI (SK-MEL-5 melanoma): > 100 µM
TGI (786-0 renal): > 100 µM
TGI (OVCAR-3 ovarian): > 100 µM
TGI (ACHN renal): > 100 µM
TGI (NCI/ADR-RES ovarian): > 100 µM
TGI (MOLT-4 leukemia): 96 µM
TGI (MALME-3M melanoma): > 100 µM
TGI (UACC-257 melanoma): > 100 µM
TGI (SN12C renal): > 100 µM
TGI (OVCAR-4 ovarian): 39.6 µM
TGI (SF-268 CNS): > 100 µM
